From patent US7378387B2, “Method of suppressing immune response by reducing intracellular content of glutathione in macrophages and monocytes” (Ajinomoto Co., Inc., priority 1997, dated 2008)
Where a name gives a salt, the structure may show the parent alone.

Legend:
IL-12 [1] = assay: IL-12 production from macrophages induced through administration (Example 9, Table 1); format: in vivo, DBA/2 mice; conditions: LPS 100 ng/ml, IFNγ 100 units/ml
Method: (§1) The amount of IL-12 was determined through bioassay using cells of human T cell strain 2D6 (J. Leukocyte Biology, vol. 61, p. 346, 1997).
(§2) 2D6 cells which had been incubated in an RPMI 1640 medium containing 500 pg/ml of recombinant human IL-12, 50 μM of 2-mercaptoethanol and 10% FCS (fetal calf serum) were moved to a tube, and centrifugally washed three times with the above-mentioned medium without IL-12 and cell density was adjusted to 1×10^5/ml. The cell suspension was added in an amount of 100 μl each to a 96-well flat bottom plate containing a sample serially diluted in advance with an RPMI 1640 medium containing 50 μM of 2-mercaptoethanol and 10% FCS in an amount of 100 μl each. Subsequently, the mixture was charged into a 5% […] incubator of 37° C., and incubated for 48 hours. For final 6 hours, ^3H-TdR was pulsed (a substance adjusted to 370 kBq/ml in an RPMI 1640 medium containing 50 μM of 2-mercaptoethanol and 10% FCS was added in an amount of 50 μl each). The cells a harvested, and the radioactivity was measured using a β counter (Matrix 96, supplied by Packard).
(§3) The increase in the amounts of oxidative macrophages can easily be determined visually from the fact that almost no reaction product with monochlorobimane is observed, namely, a gray or blue image is provided, and the increase in the amounts of reductive macrophages from the fact that a red or yellow image is provided respectively. […] Meanwhile, the same examination was conducted by harvesting peritoneal exudate cells after 20 hours of the administration of 2 mg of N-acetylcystine (NAC).
(§4) Thus, the peritoneal exudate adherent cells were incubated in the following manner, and the amounts of NO and IL-12 produced in the culture supernatant were measured. With respect to the amount of IL-6, the amount of IL-6 produced spontaneously in the absence of a stimulator was measured.
(§5) Cells: The peritoneal exudate adherent cells obtained by the stimulation, namely, the macrophages were added to a 96-well microplate in an amount of 1×10^5 cells/200 μl each.
(§6) Medium: Phenol red-free RPMI 1640: 200 μl/well
(§7) LPS: Lipopolysaccharide (made by Sigma Co.) (origin: E. coli) 100 ng/ml

IL-6 [2] = assay: IL-6 production from macrophages induced through administration (Example 9, Table 1); format: in vivo, DBA/2 mice; design: concentration or dose not given beside the values; conditions: produced spontaneously in the absence of a stimulator
Method: (§8) A stimulator was added to 1×10^6 MΦ, and the incubation was conducted at 37° C. for 2 days in a CO2 incubator. After centrifugation, the culture supernatant was collected.
(§9) The amount of IL-6 was determined using IL-6 dependent mouse hybridoma MH60 cells (J. Eur. Immunol., vol. 18, p. 951, 1988). One hundred microliters of the culture supernatant were added to 100 μl of the MH60 cell suspension adjusted to 1×10^5 cells/ml in a 10% FCS-containing RPMI medium, and the mixed solution was incubated at 37° C. for 2 days in a CO2 incubator. Subsequently, 10 μl of MTT (supplied by Sigma Co.) solution adjusted to a concentration of 5 mg/ml in the same medium were added thereto, and the reaction was conducted at 37° C. for 5 hours. After the completion of the reaction, the centrifugation was conducted. The supernatant (160 μl) was removed, and 100 μl of a mixture of hydrochloric acid and propanol were added to the residue. The suspension was conducted using a pipetman to dissolve the cells. Immediately after the dissolution, an absorbance of 570 nm was measured with an immunometer (supplied by Bio-Rad).
as §3, with “This was clarified by harvesting peritoneal exudate cells 20 hours after the completion of the administration, adhering the cells to the plastic surface, then reacting the cells with 10 μM of monochlorobimane at 37° C. for 30 minutes, and analyzing the reaction product with ACAS. The” for “The”
as §4, §5, §6

NO [3] = assay: NO production from macrophages induced through administration (Example 9, Table 1); format: in vivo, DBA/2 mice; conditions: LPS 100 ng/ml, IFNγ 100 units/ml
Method: (§10) A stimulator was added to 1×10^5 MΦ, and the incubation was conducted at 37° C. for 2 days in a CO2 incubator. After the completion of the centrifugation, the culture supernatant was collected.
(§11) One hundred microliters of a Griess-Romijn reagent (supplied by Waco Pure Chemical Industries, Ltd.) adjusted to a concentration of 50 mg/ml in distilled water were added to 100 μl of the culture supernatant, and the reaction was conducted at room temperature for 15 minutes. After the completion of reaction, an absorbance of 540 nm was measured. NaNO2 was used as a standard.
as §3, with “This was clarified by harvesting peritoneal exudate cells 20 hours after the completion of the administration, adhering the cells to the plastic surface, then reacting the cells with 10 μM of monochlorobimane at 37° C. for 30 minutes, and analyzing the reaction product with ACAS. The” for “The”
as §4, §5, §6, §7

[4] = test system: peritoneal exudate cells (macrophages); assay: Induction of oxidative or reductive macrophages by administration, monochlorobimane/ACAS (Example 9); format: in vivo, DBA/2 mice; conditions: Day 1 and Day 2, cells harvested 20 hours later; 20 μg (NAC-OMe)2 or (NAC)2, 10 μg acetylgliotoxin, 2 mg NAC intraperitoneally; 40 μg dexamethasone subcutaneously
Method: as §3, with “This was clarified by harvesting peritoneal exudate cells 20 hours after the completion of the administration, adhering the cells to the plastic surface, then reacting the cells with 10 μM of monochlorobimane at 37° C. for 30 minutes, and analyzing the reaction product with ACAS. The” for “The”

IL-12 [5] = assay: Suppression of IL-12 production of reductive MΦ by DEM or IL-4 (Example 7); format: cell-based, mouse
Method: as §1, §2
As mentioned above, IL-12 was produced only in reductive MΦ having the high GSH content in cells. It was examined whether this production is suppressed by converting MΦ to oxidative MΦ. That is, it was analyzed whether the IL-12 production is suppressed by exposing lentinan-induced MΦ with DEM.
(§12) IL-4 is a cytokine which acts on MΦ suppressively. IL-4 is considered to have an opposite function to IL-12 in the Th1/Th2 balance as well. Accordingly, it was examined whether IL-4 acts suppressively on the IL-12 production by reductive MΦ.

IL-12 [6] = assay: IL-12 production by MΦ induced by intraperitoneal injection of substances (Example 7); format: in vivo, mouse; conditions: MΦ induced by intraperitoneal injection of the substance; stimulation with LPS and IFNγ
Method: as §1, §2
It was examined whether there is a difference in the IL-12 production between LNT-induced MΦ and LPS-induced MΦ. […] Next, the same analysis was conducted using MΦ induced by intraperitoneally injecting substances for changing the GSH content in cells.

NO [7] = assay: NO production of MΦ pretreated with IL-4 (Example 7); format: cell-based, mouse
Method: as §10, §11
Reductive MΦ increases the NO production by the IFNγ stimulation in comparison with oxidative MΦ, and rather suppresses the IL-6 production. IFNγ is known to be a cytokine produced from Th1 cells. […] Further, MΦ of which the GSH content in cells was increased by the stimulation with GSH-OEt and MΦ of which the GSH content in cells was decreased by the stimulation with DEM were pretreated with IL-4, and IFNγ thereafter and LPS stimulation was carried out to induce NO production.

[8] = test system: reductive glutathione in MΦ; assay: Content of reductive glutathione in MΦ treated with IL-4, ACAS image analysis (Example 7); format: cell-based, mouse; conditions: image analysis by ACAS
Method: Three-hundred microliters of a cell suspension adjusted concentration of 3×10^5 cells/ml in an RPMI 1640 medium (phenol red-free) were charged into a chambered coverglass (#136439, supplied by Nunc), and incubated at 37° C. for 2 hours using a CO2 incubator. The culture solution was washed with the medium, and 300 μl of monochlorobimane (supplied by Molecular Plobe) adjusted to 10 μM in the same medium were added thereto. The mixture was charged into a CO2 incubator of 37° C., and the reaction was conducted for 30 minutes. The fluorescent intensity was measured with ACAS. In ACAS, a UV laser was used.
as §12

IL-6 [9] = assay: IL-6 production of MΦ pretreated with IL-4 (Example 7); format: cell-based, mouse
Method: as §8, §9
Further, MΦ of which the GSH content in cells was increased by the stimulation with GSH-OEt and MΦ of which the GSH content in cells was decreased by the stimulation of DEM were pretreated with IL-4, and IFNγ was exposed thereon to induce the IL-6 production. […]

For `CC(=O)O[C@H]1C=CC=C2C[C@]34SS[C@](CO)(C(=O)N3[C@@H]21)N(C)C4=O` [Acetylgliotoxin], the “IL-12, amount produced relative to that of control group” value (IL-12 [1]) was 14%, the “IL-6, amount produced relative to that of control group” value (IL-6 [2]) was 450% and the “NO, amount produced relative to that of control group” value (NO [3]) was 22%. For the same molecule, the “type of macrophages induced (monochlorobimane, ACAS)” value [4] was “Oxidative macrophages were induced”.

`CCOC(=O)/C=C\C(=O)OCC` [DEM, diethyl maleate, reference compound] was tested, and the “IL-12 production from lentinan-induced MΦ with the addition of DEM” value (IL-12 [5]; without DEM 828 pg/ml) was 0 pg/mL and the IL-12 production (IL-12 [6]) was “produced only in MΦ derived from GSH-OEt administered mice”.

In the case of `C[C@@H]1C[C@H]2[C@@H]3CCC4=CC(=O)C=C[C@]4(C)[C@@]3(F)[C@@H](O)C[C@]2(C)[C@@]1(O)C(=O)CO` [Dexamethasone, dexamethasone, reference compound], the “IL-12, amount produced relative to that of control group” value (IL-12 [1]) is reported as 5%, the “IL-6, amount produced relative to that of control group” value (IL-6 [2]) is reported as 1020% and the “NO, amount produced relative to that of control group” value (NO [3]) is reported as 45%.

B1: IL-4: interleukin 4, a cytokine which acts on MΦ suppressively; typical Th2 cytokine (protein, UniProt P05112 25-153, looked up)
Interleukin-4: HKCDITLQEIIKTLNSLTEQKTLCTELTVTDIFAASKNTTEKETFCRAATVLRQFYSHHEKDTRCLGATAQQFHRHKQLIRFLKRLDRNLWGLAGLNSCPVKEANQSTLENFLERLKTIMREKYSKCSS
With B1 the “IL-12 production by GSH-OEt administered mouse MΦ after pretreatment with IL-4” value (IL-12 [5]; without IL-4 490 pg/ml) was 258 pg/mL, the “IL-12 production by LNT-induced MΦ after pretreatment with IL-4” value (IL-12 [5]; without IL-4 1,580 pg/ml) was 370 pg/mL and the “NO production of GSH-OEt-stimulated and DEM-stimulated MΦ pretreated with IL-4” value (NO [7]; IFNγ and LPS stimulation, both subsets of MΦ) was “remarkably suppressed”. For the same molecule, the “IFNγ NO production from MΦ pretreated with IL-4 in comparison with untreated MΦ” value (NO [7]; IFNγ stimulation) was “significantly suppressed”, the “content of reductive glutathione in MΦ” value [8] was “markedly decreases” and the “IL-6 production of GSH-OEt-stimulated and DEM-stimulated MΦ pretreated with IL-4” value (IL-6 [9]; IFNγ exposure, in comparison with IL-4-untreated MΦ) was “increased”. For the same molecule, the “IL-6 production with IFNγ after pretreatment with IL-4” value (IL-6 [9]; resident MΦ, LPS-induced MΦ and LNT-induced MΦ) was “markedly increased”.
